Patent US20080176957A1, “PRESERVATIVE COMPOSITIONS COMPRISING RENEWABLY-BASED, BIODEGRADABLE 1,3-PROPANEDIOL” (priority 2006, published 2008)
Where two headings read alike, the source gives them in different places.

How the values were obtained:
[1] = Solubility of compounds and common preservatives in Bio-PDO and PG; type: physicochemical
Text: Cosmetic preservative blends need a broad range of protection against gram positive and negative bacteria, yeasts and molds. In cosmetics, solubility is also important. Clear solutions are preferred to emulsions, suspensions or dispersions. […] Other preservatives or a mixture of preservatives can be used with Bio-PDO™, such as choloracetamide sodium benzoate, 5-bromo-5-nitro-1,3-dioxane, butyl paraben, ethyl paraben, isobutyl paraben, iodopropynyl butylcarbamate, and 2,4,4′-trichloro-2′-[…].

humans [2] = assay: Human repeated patch test for irritation or delayed contact hypersensitivity (Example 2); type: in vivo; conditions: diluted with D.I. water to 5%, 25% and 50%, nine 24-hour induction patches and challenge
Text: The purpose of this study was to determine the potential of biologically-derived 1,3-propanediol, diluted to concentrations of 5%, 25%, and 50%, to cause irritation or delayed contact hypersensitivity in humans. The method employed in carrying out this test, described below, was similar to that described in “Appraisal of the Safety of Chemicals in Foods, Drugs and Cosmetics” by […] and published by the Association of Food and Drug Officials of the United States, the entirety of which is incorporated herein by reference.
Test Panel: The test involved the application of the test article to the upper arms of a group of 112 volunteer panelists. The panelists ranged from 16 to 71 years of age. One hundred and five panelists completed the study. Prior to the initiation of the study, all panelists were in good general health and free of any visible skin disease or anomaly in the area to be patched. Each panelist was required to read, understand and sign an informed consent statement. […]

humans [3] = assay: Second human study of irritation or delayed contact hypersensitivity, Bio-PDO vs PG (Example 3); type: in vivo
Text: A second study to determine the potential of biologically-derived 1,3-propanediol and PG, diluted to concentrations of 25%, 50%, and 75% (pH 4, 7 and 9 tested) to cause irritation or delayed contact hypersensitivity in humans.

skin = conditions: background statement, Kinnunen et al. 1991; cited from earlier work

OCCCCO [1,4-Butanediol]
Solubility in Bio-PDO ™ ([1]; 50 Wt % in Bio-PDO (Table 1)): Soluble | Solubility in PG ([1]; 50 Wt % in PG (Table 1)): Soluble

OCCCO [Bio-PDO™, 1,3-propanediol]
Skin irritation, fatiguing or sensitization (humans [2]): not to be a skin irritant, fatiguing agent, or sensitizing agent | Dermal irritation or sensitization reactions (humans [3]; humans, 25, 50 and 75% at pH 7, or 75% at pH 4 and 9): did not produce any clinically significant dermal irritation or sensitization reactions

CCO [Ethanol]
Solubility in Bio-PDO ™ [1]: Soluble | Solubility in PG [1]: Soluble

OCC(O)CO [Glycerol]
Solubility in Bio-PDO ™ [1]: Soluble | Solubility in PG [1]: Soluble

CC(C)O [IPA]
Solubility in Bio-PDO ™ ([1]; 50 Wt % in Bio-PDO (Table 1)): Soluble | Solubility in PG ([1]; 50 Wt % in PG (Table 1)): Soluble

Oc1cc(Cl)ccc1Oc1ccc(Cl)cc1Cl [Irgasan]
Solubility in Bio-PDO ™ ([1]; 20 Wt % in Bio-PDO (Table 2)): Soluble | Solubility in PG ([1]; 20 Wt % in PG (Table 2)): Soluble

CC(O)CO (centres unmarked) [PG, propylene glycol, reference compound]
Skin irritation and sensitization (skin): is a skin irritant and skin sensitizer | Dermal irritation (humans [3]; in vivo, pH 7): produced dermal irritation at all three concentrations

O=C(O)c1ccccc1O [Salicyclic acid]
Solubility in Bio-PDO ™ ([1]; 10 Wt % in Bio-PDO (Table 2)): Soluble | Solubility in PG ([1]; 10 Wt % in PG (Table 2)): Soluble | Solubility in Bio-PDO ™ ([1]; 15 Wt % in Bio-PDO (Table 2)): Soluble | Solubility in PG ([1]; 15 Wt % in PG (Table 2)): Soluble | Solubility in Bio-PDO ™ ([1]; 20 Wt % in Bio-PDO (Table 2)): Not Soluble | Solubility in PG ([1]; 20 Wt % in PG (Table 2)): Soluble
